Measurements as given in patent US7071147B2, “Weed control process” (priority 2001, dated 2006).

Legend:
[1] = system: Redroot pigweed (AMARE), normal wild variety (non-tolerant); experiment: Glasshouse postemergence herbicide test, percentage damage on normal wild (non-tolerant) plants; assay type: in vivo; details: rates of Table 1; 13 days after application
Excerpt: (§1) The soil was a silty clay loam mixed with fertiliser (12-12-12) at the rate of 128 g fertiliser to 10 gallons of soil.
(§2) The tolerant seeds were planted 13 days earlier than the non-tolerant seeds in order to get the seedlings to a similar size by the time the herbicide was applied. The time difference in planting was based on earlier observations of germination speed. On application of the herbicides, the tolerant plants had reached the 6-9 leaf stage, and the non-tolerant plants the 5-leaf stage.
(§3) Herbicide solutions were made by dissolving the herbicide(s) in tap water containing 0.5% of a commercial surfactant, ‘Tween 20’. The solutions were applied at […] and 40 p.s.i pressure, using an 80015E nozzle. After spraying, the plants were placed in a glasshouse at 29/20° C. day/night temperature and 45/65% day/night relative humidity and a photoperiod of 14 hours.
(§4) The figures in the mesotrione and atrazine columns are g/ha of herbicide applied to the test pots. The figures in the subsequent columns are percentage damage observed 13 days after application of the relevant herbicide composition. The numbers range from 0 (no effect) to 100 (dead plants). The main area of focus for the present invention is the effect on tolerant plants, and the effect on non-tolerant plants was only measured for comparative purposes.

[2] = system: Redroot pigweed (AMARE), variant known to exhibit triazine tolerance; assay type: in vivo; details: 13 days after application; for effect on tolerant plants (in words): rates of Table 1
Excerpt: as §1, §2, §3, §4

CCNc1nc(Cl)nc(NC(C)C)n1 [Atrazine, atrazine]
effect on non-tolerant plants (in words) [1]: significantly damaging | effect on tolerant plants (in words) [2]: no effect at all

CS(=O)(=O)c1ccc(C(=O)C2C(=O)CCCC2=O)c([N+](=O)[O-])c1 [mesotrione]
effect on non-tolerant plants (in words) [1]: causes damage | damage level on tolerant plants ([2]; 0.90 g/ha mesotrione alone): 2 | effect on tolerant plants (in words) [2]: causes damage
